Two substances from patent US4107158A, “Process for making an octapeptide useful for the treatment of diabetes” (Choay S.A., priority 1974, dated 1978) can be followed below.

The subject of one series is diabetic rats. The series can be described thus: Effect on glycemia in diabetic animals. Conditions: glucose 0.5 g/kg; for course of glycemia after simultaneous injection with glucose: diabetic rats fasted 4 hours, octapeptide 2 μg/g. It is filed as in vivo. The procedure: In this test, the drop in glycemia was compared after the simultaneous injection of glucose, on the one hand, and, on the other hand, either of the octapeptide at the dosage of 2 μg (I), or of insulin, or again of both at once. In that latter case the dosage of octapeptide used was also 2μg/g. The tests were carried out on diabetic rats, kept fasting for 4 hours before the injection of glucose (at the dose of 0.5 g/kg of animal).

The test system of series [1] is mice. The series is described as follows: Tolerance: acute and subacute toxicity study in mice. It is filed as in vivo. As to conditions: 1 month, daily dosages 5 to 10 times the active dosage. The procedure: An acute and subacute toxicity study was carried out on mice for 1 month, each mouse receiving daily dosages corresponding to 5 to 10 times the active dosage.

For series [2], the target named is glyceraldehyde 3-phosphate dehydrogenase (Homo sapiens, UniProt P04406). The series is described as follows: Enzymatic effect in vitro: lifting of somantine inhibition of glyceraldehyde 3-phosphate dehydrogenase. It is filed as biochemical. The procedure:
In this test, the compound (I) was tested for its ability to raise the inhibition of a somantine extracted from a plasma with respect to the action of glyceraldehyde 3-phosphate dehydrogenase.
To this end, the activity of the enzyme in the presence successively of somantine alone, of the compound (1) alone, and finally in the presence of somantine and of the compound (I), were measured.
In this test, the glyceraldehyde 3-phosphate dehydrogenase was used at a concentration of […], the somantine at 25 μg/ml, and the compound (I) at 50 μg/ml.
The method used for the measurements is that of Pihl and Lang (J. Biol. Chem 237 : 1356 - 1362, 1962).
The percentage of inhibition of the enzyme found under these conditions is as follows: […]

For a further series, the system named is adult rabbits. The series is described as follows: Effect on the in vivo effect of insulin: intravenous glucose tolerance in the rabbit. The procedure:
The assays were carried out in the course of the tests carried out to determine the resistance to glucose injected by the intravenous route in the rabbit.
These tests were done on adult rabbits, which had been subjected to prior fasting for 24 hours. Blood was drawn off and the glucose level in the blood samples was determined. The measurement was carried out by the ferricyanide method as adapted for the "Technicon Autoanalyser" (J. Biol. Chem. 120 : 51 - 55, 1937). In this way the glucose level on fasting, then its variation after the intravenous injection of glucose, at the dose of 1 gram per kilo, was determined. These measurements were then renewed in rabbits which had received, 5 minutes after the glucose, an intravenous injection of the compound (1) (5μg/kg).

The test system of series [3] is insulin receptors of lipid cells. The series can be described thus: Insulin binding to trypsinated lipid cells. As to conditions: octapeptide introduced into the medium; trypsinated cells alone no longer fix insulin. The format is cell-based. An excerpt:
In an attempt to elucidate the mechanism of action of the octapeptide (I) with respect to insulin, the phenomena were first studied at the level of the insulin receptors of lipid cells trypsinated to destroy said receptors.

Series [4] relates to mice. The series is described as follows: Influence on glycemia in mice after glucose injection. It is filed as in vivo. The text has this: d. Influence of octapeptide (I) on glycemia has been determined in mice under conditions similar to those described for rabbits. The experiment included two series of tests aimed at studying the immediate effects and the prolonged effects.
In the first series of tests, a simultaneous injection of glucose and of the octapeptide (1) was made, and the lowering of glycemia with respect to that of control animals which had not received glucose, was followed as a function of time.
The injections were respectively of 0.25 g of glucose and 2 mg per kilo of body weight of the animal, namely about 40 μg, of octapeptide (I) or […].
In the second series of tests, the mice received the product before the injection of glucose. Three injections each of 40μg of octapeptide (1) were administered respectively 72, 48 and 24 hous before the injection of glucose.

In series [5] the test system is isolated hemidiaphragm of the rat. The series is described as follows: Consumption of glucose in vitro, isolated rat hemidiaphragm. The format is cell-based, Wistar albino male rats. The procedure: To follow this consumption, the isolated hemidiaphragm of the rat in vitro was used. The method employed is that described by Park et al. (Effect of insulin on free glucose content of rat diaphragm in vitro -- Amer. J. Physiol. 182 : 12 - 16, 1955). The hemidiaphragm derived from Wistar albino male rats each weighing 200 to 250 g was used. The rats were fed freely for 7 days and then starved for 24 hours. The solutions studied contained 2 mg/ml of glucose, 500 μU/ml of insulin. The compound (I) was introduced at 250 μg/ml. The consumption of glucose related to the weight of tissue in grams and per hour was under these conditions: […]

Another series relates to hepatic cells. The series can be described thus: Insulin binding to hepatic cells. The format is cell-based. The procedure: In the same way, the ratio of insulin binding to hepatic cells placed in a suitable reaction medium was measured. When the medium contains octapeptide (I), the ratio of insulin binding to the hepatic cells increases. The result is similar if the said cells are incubated with octapeptide (I).

In series [6] the test system is glucose receptors of the Langerhans islets. The series is described as follows: Glucose-stimulated insulin liberation from Langerhans islets of treated animals. The format is cell-based. As to conditions: islets removed one day or four days after injection of octapeptide; versus controls. The procedure: Finally, the effect of the octapeptide (I) on the glucose receptors of the Langerhans islets was determined. For this purpose, the octapeptide (I) was injected into animals.
One day or four days later, the animals were killed and the islets of Langerhans removed. The latter were placed in a reaction medium supplemented with glucose, and the amount of insulin liberated was determined and compared tocontrols.

Where no end group is shown, it is not given here.

Sequence of glyceraldehyde 3-phosphate dehydrogenase (P04406 whole entry, species assumed): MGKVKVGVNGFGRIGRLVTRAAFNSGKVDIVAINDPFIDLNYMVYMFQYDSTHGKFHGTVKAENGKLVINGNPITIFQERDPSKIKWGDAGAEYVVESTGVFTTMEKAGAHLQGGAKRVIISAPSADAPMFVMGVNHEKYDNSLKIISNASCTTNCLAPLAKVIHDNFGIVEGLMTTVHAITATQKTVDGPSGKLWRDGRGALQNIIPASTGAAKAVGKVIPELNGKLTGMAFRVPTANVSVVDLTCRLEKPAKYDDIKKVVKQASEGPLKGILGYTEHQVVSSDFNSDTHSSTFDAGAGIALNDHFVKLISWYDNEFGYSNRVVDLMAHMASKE

Regarding “LSRLFDNA [compound (I), leucyl--seryl--arginyl--leucyl--phenylalanyl--aspartyl--asparaginyl-alanine]”, in the series on diabetic rats, the “course of glycemia after simultaneous injection with glucose” value was “practically unmodified”. For the same substance, in the series with mice [1], the “toxic effect, macro and microscopic studies” value is recorded as “not shown any toxic effect”. For the same substance, the “effect on the inhibiting effect of somantine (in words)” value in [2] (compound (I) 50 μg/ml together with somantine 25 μg/ml) is “partly suppressed”. In addition, the “effect on the activity of the enzyme (in words)” value in series [2] (compound (I) alone, 50 μg/ml) is given as “practically without effect”. In addition, the inhibition at 50 µg/mL in [2] (enzyme 0.5 μml, somantine 25 μg/ml, compound (I) 50 μg/ml, read-out: percentage of inhibition of the enzyme) stood at 1%. Also, the “glucose level reached, compared with fasting level” value with adult rabbits (glucose 1 g/kg i.v., compound 5 μg/kg i.v.) was “less than those which were measured in the fasting rabbits”. Further, the “decrease in the glucose level after i.v. glucose” value in the series with adult rabbits (glucose 1 g/kg i.v., compound 5 μg/kg i.v. 5 minutes after glucose, versus rabbits without compound) is on record as “greater”. In addition, in the series on adult rabbits (similar tests at intervals of several days), the “persistence of effect on the carbohydrate metabolism after injection” value is “persists several days”. For the same substance, the “insulin binding to trypsinated lipid cells” value in [3] is on record as “the binking reasppears”. Besides, the “drop in glycemia, immediate effect” value in the series with mice [4] (simultaneous injection of glucose and about 40 μg octapeptide, versus controls) is “distinctly more accentuated”. Moreover, in the series with mice [4] (three injections of 40 μg at 72, 48 and 24 hours before glucose, versus controls receiving only glucose), the “drop in glycemia, prolonged effect” value is listed as “more rapid drop in glycemia”. For the same substance, the “consumption of glucose in the presence of insulin (in words)” value in series [5] (compound (I) 250 μg/ml added to glucose + insulin) is recorded as “increased”. Further, the “ratio of insulin binding to hepatic cells” value in the series on hepatic cells (cells incubated with octapeptide (I)) is recorded as “similar”; with hepatic cells (medium contains octapeptide (I)), “increases”. Further, the “level of insulin liberated by Langerhans islets in glucose-supplemented medium” value in [6] was “very substantial increase”.

As for “insulin: insulin, 500 μU/ml in glucose solution in the hemidiaphragm test”, the “course of glycemia after simultaneous injection with glucose” value with diabetic rats is “decreases rapidly, stabilises, then rises again”. Moreover, the “time after which glycemia rises again” value in the series on diabetic rats (diabetic rats) was “about 120 minutes”. The “Consumption of glucose” value in series [5] (related to weight of tissue in grams and per hour, glucose 2 mg/ml, insulin 500 μU/ml, compound (I) 250 μg/ml) came to 4.10 ± 0.15 mg.
